Values joined by “and” are separate entries in the source; they are usually repeats but may differ in a detail not shown here. Equal values may be shown once. Inconclusive results and toxic doses are left out.
System: L1210 leukemia ip in BDF1 mice, survival T/C
Assay: NCI In Vivo Anticancer Drug Screen. Data for tumor model L1210 Leukemia (intraperitoneal) in B6D2F1 (BDF1) mice
Conditions: endpoint: mean survival time, higher = longer survival
How it was run: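 Transplantable tumor model; survival measured in treated vs vehicle control mice. Value = treated/control.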

[1] = dose: 50.0 mg/kg/injection, schedule: Q01DX009 (ip), vehicle: Klucel (hydroxypropylcellulose) (HPC)
[2] = dose: 100.0 mg/kg/injection, schedule: Q01DX009 (ip), vehicle: Klucel (hydroxypropylcellulose) (HPC)
[3] = dose: 200.0 mg/kg/injection, schedule: Q01DX009 (ip), vehicle: Klucel (hydroxypropylcellulose) (HPC)
[4] = dose: 75.0 mg/kg/injection, schedule: Q01DX001 (ip), vehicle: saline
[5] = dose: 150.0 mg/kg/injection, schedule: Q01DX001 (ip), vehicle: saline
[6] = dose: 300.0 mg/kg/injection, schedule: Q01DX001 (ip), vehicle: saline
[7] = dose: 400.0 mg/kg/injection, schedule: Q01DX009 (ip), vehicle: Klucel (hydroxypropylcellulose) (HPC)
[8] = dose: 10.0 mg/kg/injection, schedule: Q01DX009 (ip), vehicle: saline
[9] = dose: 50.0 mg/kg/injection, schedule: Q01DX009 (ip), vehicle: saline

COC1=NS(=O)(=O)N=C(c2ccc(OC)cc2)O1
T/C (dose: 100.0 mg/kg/injection, schedule: Q04DX002 (ip), vehicle: Klucel (hydroxypropylcellulose) (HPC)): 103 % of control
T/C (dose: 200.0 mg/kg/injection, schedule: Q04DX002 (ip), vehicle: Klucel (hydroxypropylcellulose) (HPC)): 100 % of control
T/C (dose: 400.0 mg/kg/injection, schedule: Q04DX002 (ip), vehicle: Klucel (hydroxypropylcellulose) (HPC)): 89 % of control

Nc1ncnc2c1ncn2C1OC(C(=O)O)C(O)C1O (stereo not drawn)
T/C (dose: 100.0 mg/kg/injection, schedule: Q01DX005 (ip), vehicle: saline): 107 % of control
T/C (dose: 200.0 mg/kg/injection, schedule: Q01DX005 (ip), vehicle: saline): 101 % of control

CCCC1OC(C)C(C)O1 (stereo not drawn)
T/C [1]: 101 % of control
T/C [2]: 101 % of control
T/C [3]: 101 % of control

CN(C)C(=S)Oc1ccc(S(=O)(=O)F)c(Cl)c1Cl
T/C (dose: 25.0 mg/kg/injection, schedule: Q04DX002 (ip), vehicle: saline with Tween-80): 92 % of control
T/C (dose: 50.0 mg/kg/injection, schedule: Q04DX002 (ip), vehicle: saline with Tween-80): 92 % of control
T/C (dose: 100.0 mg/kg/injection, schedule: Q04DX002 (ip), vehicle: saline with Tween-80): 86 % of control

CC(=O)C1CCc2c(O)c3c(c(O)c2C1)C(=O)c1ccccc1C3=O (stereo not drawn)
T/C (dose: 87.5 mg/kg/injection, schedule: Q04DX003 (ip), vehicle: saline with Tween-80): 94 % of control
T/C (dose: 175.0 mg/kg/injection, schedule: Q04DX003 (ip), vehicle: saline with Tween-80): 91 % of control
T/C (dose: 350.0 mg/kg/injection, schedule: Q04DX003 (ip), vehicle: saline with Tween-80): 94 % of control

COC(CN(C)Cc1ccccc1)OC
T/C [4]: 107 % of control
T/C [5]: 104 % of control
T/C [6]: 102 % of control

CCCCCCCCCCCCNC(=O)CCl
T/C [2]: 87 % of control
T/C (dose: 100.0 mg/kg/injection, schedule: Q04DX003 (ip), vehicle: Klucel (hydroxypropylcellulose) (HPC)): 91 % of control
T/C [3]: 90 % of control
T/C (dose: 200.0 mg/kg/injection, schedule: Q04DX003 (ip), vehicle: Klucel (hydroxypropylcellulose) (HPC)): 89 % of control
T/C [7]: 91 % of control

CN(C)CCNCc1ccccc1
T/C (dose: 44.4 mg/kg/injection, schedule: Q01DX001 (ip), vehicle: saline): 95 % of control and 98 % of control
T/C (dose: 66.7 mg/kg/injection, schedule: Q01DX001 (ip), vehicle: saline): 96 % of control and 102 % of control
T/C [4]: 98 % of control
T/C [5]: 91 % of control and 94 % of control
T/C [6]: 95 % of control

CCCCN(C(=O)C(F)(F)F)C(C)(C)C(SSSC(c1ccc(Cl)cc1)C(C)(C)N(CCCC)C(=O)C(F)(F)F)c1ccc(Cl)cc1 (stereo not drawn)
T/C (dose: 100.0 mg/kg/injection, schedule: Q01DX009 (ip), vehicle: saline sonified): 103 % of control
T/C (dose: 100.0 mg/kg/injection, schedule: Q04DX003 (ip), vehicle: saline sonified): 96 % of control
T/C (dose: 200.0 mg/kg/injection, schedule: Q01DX009 (ip), vehicle: saline sonified): 100 % of control
T/C (dose: 200.0 mg/kg/injection, schedule: Q04DX003 (ip), vehicle: saline sonified): 94 % of control
T/C (dose: 400.0 mg/kg/injection, schedule: Q01DX009 (ip), vehicle: saline sonified): 96 % of control
T/C (dose: 400.0 mg/kg/injection, schedule: Q04DX003 (ip), vehicle: saline sonified): 97 % of control

NC(=O)CNC(=O)CN1C(=O)c2ccccc2C1=O
T/C (dose: 100.0 mg/kg/injection, schedule: Q01DX001 (ip), vehicle: other): 103 % of control
T/C (dose: 200.0 mg/kg/injection, schedule: Q01DX001 (ip), vehicle: other): 103 % of control
T/C (dose: 400.0 mg/kg/injection, schedule: Q01DX001 (ip), vehicle: other): 103 % of control

CCN(C)N=Nc1cccnc1
T/C [8]: 101 % of control
T/C (dose: 15.0 mg/kg/injection, schedule: Q01DX009 (ip), vehicle: saline): 107 % of control
T/C (dose: 22.0 mg/kg/injection, schedule: Q01DX009 (ip), vehicle: Klucel (hydroxypropylcellulose) (HPC)): 111 % of control
T/C (dose: 22.0 mg/kg/injection, schedule: Q01DX009 (ip), vehicle: saline with Tween-80): 110 % of control
T/C (dose: 22.0 mg/kg/injection, schedule: Q01DX009 (ip), vehicle: saline): 112 % of control
T/C (dose: 33.0 mg/kg/injection, schedule: Q01DX009 (ip), vehicle: Klucel (hydroxypropylcellulose) (HPC)): 108 % of control
T/C (dose: 33.0 mg/kg/injection, schedule: Q01DX009 (ip), vehicle: saline with Tween-80): 122 % of control
T/C (dose: 33.0 mg/kg/injection, schedule: Q01DX009 (ip), vehicle: saline): 152 % of control
T/C [1]: 108 % of control
T/C [9]: 170 % of control
T/C (dose: 75.0 mg/kg/injection, schedule: Q01DX009 (ip), vehicle: Klucel (hydroxypropylcellulose) (HPC)): 150 % of control
T/C (dose: 75.0 mg/kg/injection, schedule: Q01DX009 (ip), vehicle: saline with Tween-80): 122 % of control

CC1=C(C(=O)O)CC(S(=O)(=O)O)C1(C)C (stereo not drawn)
T/C (dose: 75.0 mg/kg/injection, schedule: Q01DX001 (ip), vehicle: acetone): 96 % of control
T/C (dose: 150.0 mg/kg/injection, schedule: Q01DX001 (ip), vehicle: acetone): 96 % of control
T/C (dose: 300.0 mg/kg/injection, schedule: Q01DX001 (ip), vehicle: acetone): 92 % of control

COC1C(NC(=O)N(CCCl)N=O)C(OC(C)=O)OC(COC(C)=O)C1OC(C)=O (stereo not drawn)
T/C (dose: 1.8 mg/kg/injection, schedule: Q01DX001 (ip), vehicle: saline with Tween-80): 118 % of control
T/C (dose: 2.6 mg/kg/injection, schedule: Q01DX001 (ip), vehicle: saline with Tween-80): 181 % of control
T/C (dose: 4.0 mg/kg/injection, schedule: Q01DX001 (ip), vehicle: saline with Tween-80): 154 % of control
T/C (dose: 6.0 mg/kg/injection, schedule: Q01DX001 (ip), vehicle: saline with Tween-80): 259 % of control [middle of 4 runs]
T/C (dose: 9.0 mg/kg/injection, schedule: Q01DX001 (ip), vehicle: saline with Tween-80): 283 % of control and 162 % of control
T/C (dose: 13.0 mg/kg/injection, schedule: Q01DX001 (ip), vehicle: saline with Tween-80): 333 % of control and 232 % of control
T/C (dose: 20.0 mg/kg/injection, schedule: Q01DX001 (ip), vehicle: saline with Tween-80): 155 % of control and 154 % of control
T/C (dose: 30.0 mg/kg/injection, schedule: Q01DX001 (ip), vehicle: saline with Tween-80): 86 % of control

COc1ccc(NC(=O)Oc2ccc(Br)cc2Br)c(Cl)c1
T/C (dose: 50.0 mg/kg/injection, schedule: Q01DX009 (ip), vehicle: saline + alcohol): 87 % of control
T/C (dose: 100.0 mg/kg/injection, schedule: Q01DX009 (ip), vehicle: saline + alcohol): 87 % of control
T/C (dose: 200.0 mg/kg/injection, schedule: Q01DX009 (ip), vehicle: saline + alcohol): 97 % of control

NC(=O)C1(C(N)=O)CCC1
T/C [2]: 105 % of control
T/C [3]: 105 % of control
T/C [7]: 106 % of control

O=C(NCc1ccco1)Nc1ccc(Cl)cc1
T/C (dose: 100.0 mg/kg/injection, schedule: Q01DX001 (ip), vehicle: saline with Tween-80): 101 % of control
T/C (dose: 200.0 mg/kg/injection, schedule: Q01DX001 (ip), vehicle: saline with Tween-80): 96 % of control
T/C (dose: 400.0 mg/kg/injection, schedule: Q01DX001 (ip), vehicle: saline with Tween-80): 108 % of control

CCC(C(=O)O)N1C(=O)C2C3C=CC(C3)C2C1=O (stereo not drawn)
T/C (dose: 100.0 mg/kg/injection, schedule: Q04DX003 (ip), vehicle: saline with Tween-80): 94 % of control and 96 % of control
T/C (dose: 200.0 mg/kg/injection, schedule: Q04DX003 (ip), vehicle: saline with Tween-80): 96 % of control and 105 % of control
T/C (dose: 400.0 mg/kg/injection, schedule: Q04DX003 (ip), vehicle: saline with Tween-80): 105 % of control

CC(CN)OC12CC3CC(CC(C3)C1)C2 (stereo not drawn)
T/C (dose: 5.0 mg/kg/injection, schedule: Q04DX002 (ip), vehicle: saline): 91 % of control
T/C [8]: 94 % of control
T/C (dose: 10.0 mg/kg/injection, schedule: Q04DX002 (ip), vehicle: saline): 102 % of control
T/C (dose: 20.0 mg/kg/injection, schedule: Q01DX009 (ip), vehicle: saline): 101 % of control
T/C (dose: 20.0 mg/kg/injection, schedule: Q04DX002 (ip), vehicle: saline): 94 % of control
T/C (dose: 40.0 mg/kg/injection, schedule: Q01DX009 (ip), vehicle: saline): 101 % of control
T/C (dose: 40.0 mg/kg/injection, schedule: Q04DX002 (ip), vehicle: saline): 95 % of control and 91 % of control

C[N+](C)(C)CCOC(=O)c1cccc(CBr)c1
T/C [9]: 92 % of control
T/C (dose: 100.0 mg/kg/injection, schedule: Q01DX009 (ip), vehicle: saline): 95 % of control
T/C (dose: 100.0 mg/kg/injection, schedule: Q04DX003 (ip), vehicle: saline): 98 % of control
T/C (dose: 200.0 mg/kg/injection, schedule: Q01DX009 (ip), vehicle: saline): 93 % of control
T/C (dose: 200.0 mg/kg/injection, schedule: Q04DX003 (ip), vehicle: saline): 105 % of control
